Results: article PMC5114727, “Biological characterization of chemically diverse compounds targeting the Plasmodium falciparum coenzyme A synthesis pathway” (Parasites & Vectors, 2016)
Where “and” joins values, the source holds several entries; their conditions need not be identical. Identical values can stand only once. Like-named read-outs stand apart in the source and are kept apart here.

Assays:
[1] = target: early stage gametocytes (stage I to IIb/III) of P. falciparum line NF54^Pfs16; assay: Gametocyte luciferase assay, early stage; assay type: cell-based, Plasmodium falciparum
Source text: (§1) To investigate a potential role of CoA biosynthesis for host to vector transmission of the malaria parasite, we investigated the activity of our compounds on P. falciparum gametocytes, the sexual stages of P. falciparum, essential for malaria transmission. […] Parasite stage-specificity and gametocytocidal activity of the compounds was therefore investigated, utilizing a luciferase-based approach on early stage (development from stage I to IIb/III [30]) and late stage (IV to V [51]) gametocytes.
(§2) Induction of P. falciparum gametocyte differentiation and gametocyte culturing were performed as previously described. Compound activity against early stage gametocytes (covering the development from stage I to IIb/III) and late stage gametocytes (stage IV to V) of the recombinant P. falciparum line NF54^Pfs16 was assessed in concentration-response assays, in two experimental replicates consisting of two technical repeats each, at a highest concentration of 40 μM, as described earlier.

[2] = target: late stage gametocytes (stage IV to V) of P. falciparum line NF54^Pfs16; assay: Gametocyte luciferase assay, late stage; assay type: cell-based, Plasmodium falciparum
Source text: as §1, §2

PC-3 cells = assay: Resazurin cytotoxicity assay, PC-3; assay type: cell-based, human; settings: highest concentration 40 μM; bound = highest concentration with < 50 % inhibition; read-out: PC-3 cytotoxicity IC50 ± SEM
Source text: (§3) An initial indication of compound selectivity over human cells had previously been obtained through comparison of the compounds’ IC50 values against P. falciparum asexual stages and HEK293 [22]. In the present study, the selectivity investigation was extended to a small panel of human cancer cell lines, namely the estrogen receptor (ER)-positive breast cancer cell line MCF7, the ER-negative MDA-MB-231, as well as the human prostate cancer line, PC-3. Additionally, the cytotoxic effects on mouse embryonic fibroblast cell line 3T3, which serves as the host cell for T. cruzi in our image-based amastigote assay, were investigated.
(§4) Cytotoxicity of the compounds was assessed against a panel of human cancer cell lines, namely the estrogen receptor (ER)-positive breast cancer cell line MCF7, the ER-negative MDA-MB-231 and the prostate cancer line PC-3. All the cell lines were purchased from ATCC and maintained as previously described. Two biological replicates consisting of two technical replicates each were performed to generate concentration response curves (CRC) with a final highest concentration of 40 μM. A resazurin-based assay was utilized to determine cell viability as described earlier. Additionally, the cytotoxic effects on the mouse embryonic fibroblast cell line 3T3 were assessed as part of the Trypanosoma cruzi amastigote image-based assay as outlined in [35].

[3] = tested on: panel of human cancer cell lines (MCF7, MDA-MB-231, PC-3); assay: Cytotoxicity across the panel of cell lines; assay type: cell-based; settings: for IC50: MCF7, MDA-MB-231, PC-3, read-out: IC50 range against the cancer cell lines; for cytotoxicity against any of the cell lines investigated (in words): up to the highest tested concentration of 40 μM
Source text: as §3, §4

[4] = tested on: P. falciparum late stage gametocytes (PfLG, stages IV-V); assay: Chemical rescue with CoA pathway intermediates, late stage gametocytes; assay type: cell-based, Plasmodium falciparum; settings: inhibitor at IC80; for Percent rescue ± SEM by pantethine, PfLG: pantethine 5 mM; for Percent rescue ± SEM by pantothenate, PfLG: pantothenate 312.5 μM; for Percent rescue ± SEM by CoA, PfLG: CoA 1.8 mM; for Percent rescue ± SEM by dephospho CoA, PfLG: dP-CoA 2 mM
Experimental: (§5) Pantothenate is the first substrate of the pathway (Fig. 1) and its addition was intended to rescue the action of possible competitive inhibitors of the first enzyme, PanK. […] It is not known, whether P. falciparum is capable of pantetheine phosphorylation for utilization in CoA synthesis. […] Finally, the rescue ability of dP-CoA, the final substrate of CoA synthesis, was tested. […] Inhibitors competing with dP-CoA for DPCK binding were expected to be displaced, thereby rescuing parasite survival, by dP-CoA supplementation in a concentration dependent manner.
(§6) An imaging based assay was utilised to assess the chemical rescue on asexual stages of P. falciparum as described previously. All the pathway intermediates were purchased from Sigma. CoA and dP-CoA were dissolved in sterile distilled water to obtain a 20 mM stock solution, which was then aliquoted and stored at -20 °C until use. […] Each pathway intermediate was tested on the parasites at a range of concentrations to assess potential toxicity. […] On early stage P. falciparum gametocytes the same concentrations as for CoA were tested for dP-CoA; against asexual blood stage P. falciparum, late stage gametocytes and Trypanosoma b. brucei five dP-CoA concentrations were tested (2 mM, 1.5 mM, 1 mM, 0.75 mM and 0.5 mM).
(§7) The same concentration ranges of the CoA pathway intermediates were supplemented to parasites treated with the experimental compounds. The inhibitors were used at their respective final assay concentration of IC80 (as determined previously in the corresponding P. falciparum development stage or T. b. brucei assay). […] The negative control used in each assay was 0.4% DMSO, whilst the positive control was 2 μM artemisinin for asexual P. falciparum blood stages and 5 μM puromycin for all gametocyte stages and T. b. brucei. The percentage growth of the respective parasites following compound treatment was determined using Microsoft ® Excel 2010, and compared with their controls. All rescue assays were performed as two independent experiments each in duplicate point.

[5] = tested on: P. falciparum developmental stages; assay: Activity across all P. falciparum life-cycle stages tested (asexual, early and late gametocytes); assay type: cell-based, Plasmodium falciparum; settings: early and late stage gametocytes; for IC50: read-out: IC50 range across all P. falciparum life-cycle stages tested
Experimental: as §2

[6] = tested on: P. falciparum early stage gametocytes (PfEG, stage I-III); assay: Chemical rescue with CoA pathway intermediates, early stage gametocytes; assay type: cell-based, Plasmodium falciparum; settings: for Percent rescue ± SEM by pantethine, PfEG: pantethine 10 mM; for Percent rescue ± SEM by pantethine, PfEG / Percent rescue ± SEM by pantothenate, PfEG / Percent rescue ± SEM by CoA, PfEG: inhibitor at IC80; for Percent rescue ± SEM by pantothenate, PfEG: pantothenate 625 μM; for Percent rescue ± SEM by CoA, PfEG: CoA 1.6 mM
Experimental: as §5, §6
as §7, with “compounds.” for “compounds. The inhibitors were used at their respective final assay concentration of IC80 (as determined previously in the corresponding P. falciparum development stage or T. b. brucei assay).”

[7] = tested on: P. falciparum pantothenate kinase (PfPanK); assay: Radiometric pantothenate phosphorylation assay in P. falciparum lysate; assay type: biochemical, Plasmodium falciparum; settings: 100 μM single concentration, all compounds (Figure S2a)
Experimental: A radiometric assay, which allows measurement of the phosphorylation of various substrates by kinases present in P. falciparum lysates [16, 39], was used to test the effect of the chemical compounds of interest at 100 μM concentration on PanK activity.
The ability of the test compounds to inhibit P. falciparum pantothenate kinase (PfPanK) was assessed with a radiometric pantothenate phosphorylation assay as described previously [39]. In short, the phosphorylation of [^14C] pantothenate by P. falciparum lysates was measured in the presence or absence of a single concentration (100 μM, two biological replicates in duplicate technical repeats) of each test compound. […] P. falciparum lysate was prepared from trophozoite stage parasites isolated from their host RBC by treatment with 0.05% (w/v) saponin, and washed (three times) in HEPES-buffered saline (125 mM NaCl, 5 mM KCl, 20 mM D-glucose, 25 mM HEPES, 1 mM MgCl2, pH 7.1). Lysates were prepared in 10 mM potassium phosphate, pH 7.4, the concentration of cell lysates was determined from cell counts with an improved Neubauer hemocytometer, and aliquots of lysate were stored at -20 °C.[^14C] pantothenate, [^14C]

[8] = highest concentration 40 μM, read-out: Early stage gametocyte IC50 ± SEM
[9] = highest concentration 40 μM, read-out: Late stage gametocyte IC50 ± SEM
[10] = read-out: Early stage gametocyte IC50
[11] = read-out: Late stage gametocyte IC50

CC(=O)C1=C(c2ccccc2)C(=O)c2ccccc2C1=O [Amb4317088]
IC50 [1, 8]: 2880 ± 180 nM | IC50 [2, 9]: 2240 nM and 2200 nM | IC50 (PC-3 cells): 1400 ± 60 nM | IC50 [3]: 870 to 4600 nM | Percent rescue ± SEM by pantethine, PfLG [4]: No | Percent rescue ± SEM by pantothenate, PfLG [4]: No | activity against all P. falciparum development stages tested (in words) [5]: moderate, single digit micromolar activity

CC(=O)c1ccc2c3c(onc13)-c1ccccc1C2=O [Amb3377585]
IC50 [1, 8]: 250 ± 10 nM | IC50 [2, 9]: 6220 ± 2500 nM | IC50 (PC-3 cells): 5500 ± 640 nM | IC50 [3]: 5000 to 9000 nM | Percent rescue ± SEM by pantethine, PfEG [6]: No | Percent rescue ± SEM by pantothenate, PfEG [6]: No

Cc1csc(Sc2ncnc3sccc23)n1 [Amb180780]
IC50 [1, 10]: 60 nM | IC50 [2, 11]: 70 nM | IC50 (PC-3 cells): > 40000 nM | cytotoxicity against any of the cell lines investigated (in words) [3]: no or only negligible cytotoxicity | PanK inhibition [7]: did not reveal inhibition of PanK | Percent rescue ± SEM by CoA, PfEG [6]: 111.3 ± 3.2% and ~100% | Percent rescue ± SEM by pantethine, PfEG [6]: 94.2 ± 1.8% and ~100% | Percent rescue ± SEM by pantothenate, PfEG [6]: No | Percent rescue ± SEM by pantethine, PfLG [4]: No | Percent rescue ± SEM by pantothenate, PfLG [4]: No | activity against all P. falciparum development stages tested (in words) [5]: sub-micromolar IC50 values | IC50 [5]: 60 to 120 nM

CC1=CC(=O)C(C(C)C)=C/C1=N/OS(=O)(=O)c1ccccc1 [STK 740987]
IC50 [1, 10]: 430 nM | IC50 [2, 11]: 460 nM | IC50 (PC-3 cells): > 20000 nM | cytotoxicity against any of the cell lines investigated (in words) [3]: no or only negligible cytotoxicity | Percent rescue ± SEM by CoA, PfEG [6]: 24.1 ±0.7% and 24 ± 1% | activity on early stage gametocytes at previously determined IC80 value ([6]; compound alone in rescue experiment): > 95% | Percent rescue by CoA, PfEG, at the compound's IC50 ([6]; inhibitor at IC50): 61.5 ± 1.0% and 62 ± 1% | Percent rescue by dephospho CoA, PfEG, at the compound's IC50 ([6]; inhibitor at IC50): 46.2 ± 2.4% and 46 ± 2% | Rescue by pantethine, PfEG, at the compound's IC50 (in words) ([6]; inhibitor at IC50): unaffected | Rescue by pantothenate, PfEG, at the compound's IC50 (in words) ([6]; inhibitor at IC50): unaffected | Percent rescue ± SEM by pantethine, PfEG [6]: No and not rescued by the other intermediates | Percent rescue ± SEM by pantothenate, PfEG [6]: No and not rescued by the other intermediates | Percent rescue ± SEM by CoA, PfLG [4]: 53.1 ± 0.5% | Percent rescue ± SEM by CoA, PfLG ([4]; listed as STK740987): approximately 50% | Percent rescue ± SEM by dephospho CoA, PfLG [4]: 50.3 ± 0.8% | Percent rescue ± SEM by dephospho CoA, PfLG ([4]; listed as STK740987): approximately 50% | Percent rescue ± SEM by pantethine, PfLG [4]: No | Percent rescue ± SEM by pantothenate, PfLG [4]: No | activity against all P. falciparum development stages tested (in words) [5]: sub-micromolar IC50 values | IC50 [5]: 380 to 460 nM
